Data from patent US20230085307A1, “PYRIDAZINONE COMPOUND AND HERBICIDE” (NISSAN CHEMICAL CORPORATION, priority 2019, published 2023).

How the values were obtained:
late watergrass = assay: Test Example 1: herbicidal activity, application before weed generation under submerged conditions (Table 16, symbol A); assay type: in vivo, late watergrass (Echinochloa oryzicola); settings: 320 g/ha applied herbicide
Summary of the method: (§1)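 Alluvial soil was flooded to 4 cm depth, weed seeds were sown mixed and 2.5-leaf rice seedlings were transplanted. On sowing day, the compound's emulsion, diluted in water to a set dose, was applied to the water surface. Plants grew at 25–30 °C and were scored 0–5 after three weeks.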

Japanese bulrush = assay: Test Example 1: herbicidal activity, application before weed generation under submerged conditions (Table 16, symbol B); assay type: in vivo, Japanese bulrush (Schoenoplectus juncoides); settings: 320 g/ha applied herbicide
Summary of the method: as §1

oval-leafed pondweed = assay: Test Example 1: herbicidal activity, application before weed generation under submerged conditions (Table 16, symbol C); assay type: in vivo, oval-leafed pondweed (Monochoria vaginalis); settings: 320 g/ha applied herbicide
Summary of the method: as §1

barnyard grass [1] = assay: Test Example 3: herbicidal effect by foliage application, Wagner pot (Table 18, symbol H); assay type: in vivo, barnyard grass (Echinochloa crus-galli); settings: amount of applied herbicide 320 g/ha
Summary of the method: (§2)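 Plants were sown in alluvial soil held under 0.1–0.5 cm standing water and grown 14 days in a greenhouse at 25–30 °C. An emulsifiable formulation, water-diluted to the set dose, was then sprayed onto the foliage, and effects were scored three weeks later using previously defined criteria.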

Chinese sprangletop = assay: Test Example 3: herbicidal effect by foliage application, Wagner pot (Table 18, symbol D); assay type: in vivo, chinese sprangletop (Leptochloa chinensis); settings: amount of applied herbicide 320 g/ha
Summary of the method: as §2

rice flat sedge = assay: Test Example 3: herbicidal effect by foliage application, Wagner pot (Table 18, symbol E); assay type: in vivo, rice flat sedge (Cyperus iria); settings: amount of applied herbicide 320 g/ha
Summary of the method: as §2

southern crabgrass [2] = assay: Test Example 4: herbicidal effect by soil treatment (Table 19, symbol F); assay type: in vivo, southern crabgrass (Digitaria ciliaris); settings: amount of applied herbicide 320 g/ha
Summary of the method: (§3)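 In this soil treatment, the formulated compound reached the seeds only through the soil: seeds were buried about 1.5 cm deep in sterilized diluvial soil, then the diluted emulsion was sprayed over the surface. After three weeks at 25° C. to 30° C. in a greenhouse, effects were graded on criteria from an earlier test.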

green foxtail [3] = assay: Test Example 4: herbicidal effect by soil treatment (Table 19, symbol G); assay type: in vivo, green foxtail (Setaria viridis); settings: amount of applied herbicide 320 g/ha
Summary of the method: as §3

barnyard grass [4] = assay: Test Example 4: herbicidal effect by soil treatment (Table 19, symbol H); assay type: in vivo, barnyard grass (Echinochloa crus-galli); settings: amount of applied herbicide 320 g/ha
Summary of the method: as §3

wild oat [5] = assay: Test Example 4: herbicidal effect by soil treatment (Table 19, symbol I); assay type: in vivo, wild oat (Avena fatua); settings: amount of applied herbicide 320 g/ha
Summary of the method: as §3

blackgrass [6] = assay: Test Example 4: herbicidal effect by soil treatment (Table 19, symbol J); assay type: in vivo, blackgrass (Alopecurus myosuroides); settings: amount of applied herbicide 320 g/ha
Summary of the method: as §3

Italian ryegrass [7] = assay: Test Example 4: herbicidal effect by soil treatment (Table 19, symbol K); assay type: in vivo, Italian ryegrass (Lolium multiflorum); settings: amount of applied herbicide 320 g/ha
Summary of the method: as §3

windgrass [8] = assay: Test Example 4: herbicidal effect by soil treatment (Table 19, symbol L); assay type: in vivo, windgrass (Apera spica-venti); settings: amount of applied herbicide 320 g/ha
Summary of the method: as §3

velvetleaf [9] = assay: Test Example 4: herbicidal effect by soil treatment (Table 19, symbol M); assay type: in vivo, velvetleaf (Abutilon theophrasti); settings: amount of applied herbicide 320 g/ha
Summary of the method: as §3

redroot pigweed [10] = assay: Test Example 4: herbicidal effect by soil treatment (Table 19, symbol N); assay type: in vivo, redroot pigweed (Amaranthus retroflexus); settings: amount of applied herbicide 320 g/ha
Summary of the method: as §3

lambsquarters [11] = assay: Test Example 4: herbicidal effect by soil treatment (Table 19, symbol O); assay type: in vivo, lambsquarters (Chenopodium album); settings: amount of applied herbicide 320 g/ha
Summary of the method: as §3

chickweed [12] = assay: Test Example 4: herbicidal effect by soil treatment (Table 19, symbol P); assay type: in vivo, common chickweed (Stellaria media); settings: amount of applied herbicide 320 g/ha
Summary of the method: as §3

false cleavers = assay: Test Example 4: herbicidal effect by soil treatment (Table 19, symbol Q); assay type: in vivo, false cleavers (Galium spurium); settings: amount of applied herbicide 320 g/ha
Summary of the method: as §3

persian speedwell [13] = assay: Test Example 4: herbicidal effect by soil treatment (Table 19, symbol R); assay type: in vivo, Persian speedwell (Veronica persica); settings: amount of applied herbicide 320 g/ha
Summary of the method: as §3

southern crabgrass [14] = assay: Test Example 5: herbicidal effect by foliage application, plastic box (Table 20, symbol F); assay type: in vivo, southern crabgrass (Digitaria ciliaris); settings: foliage application, AAH 320 g/ha, evaluated three weeks after application
Summary of the method: (§4)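 Plants were sown into sterilized diluvial soil under about 1.5 cm cover and kept in a greenhouse at 25° C. to 30° C. Fourteen days on, foliage received an even spray of the diluted emulsion. Herbicidal or crop effect was judged three weeks afterwards.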

green foxtail [15] = assay: Test Example 5: herbicidal effect by foliage application, plastic box (Table 20, symbol G); assay type: in vivo, green foxtail (Setaria viridis); settings: foliage application, AAH 320 g/ha, evaluated three weeks after application
Summary of the method: as §4

barnyard grass [16] = assay: Test Example 5: herbicidal effect by foliage application, plastic box (Table 20, symbol H); assay type: in vivo, barnyard grass (Echinochloa crus-galli); settings: foliage application, AAH 320 g/ha, evaluated three weeks after application
Summary of the method: as §4

wild oat [17] = assay: Test Example 5: herbicidal effect by foliage application, plastic box (Table 20, symbol I); assay type: in vivo, wild oat (Avena fatua); settings: foliage application, AAH 320 g/ha, evaluated three weeks after application
Summary of the method: as §4

blackgrass [18] = assay: Test Example 5: herbicidal effect by foliage application, plastic box (Table 20, symbol J); assay type: in vivo, blackgrass (Alopecurus myosuroides); settings: foliage application, AAH 320 g/ha, evaluated three weeks after application
Summary of the method: as §4

Italian ryegrass [19] = assay: Test Example 5: herbicidal effect by foliage application, plastic box (Table 20, symbol K); assay type: in vivo, Italian ryegrass (Lolium multiflorum); settings: foliage application, AAH 320 g/ha, evaluated three weeks after application
Summary of the method: as §4

windgrass [20] = assay: Test Example 5: herbicidal effect by foliage application, plastic box (Table 20, symbol L); assay type: in vivo, windgrass (Apera spica-venti); settings: foliage application, AAH 320 g/ha, evaluated three weeks after application
Summary of the method: as §4

velvetleaf [21] = assay: Test Example 5: herbicidal effect by foliage application, plastic box (Table 20, symbol M); assay type: in vivo, velvetleaf (Abutilon theophrasti); settings: foliage application, AAH 320 g/ha, evaluated three weeks after application
Summary of the method: as §4

redroot pigweed [22] = assay: Test Example 5: herbicidal effect by foliage application, plastic box (Table 20, symbol N); assay type: in vivo, redroot pigweed (Amaranthus retroflexus); settings: foliage application, AAH 320 g/ha, evaluated three weeks after application
Summary of the method: as §4

lambsquarters [23] = assay: Test Example 5: herbicidal effect by foliage application, plastic box (Table 20, symbol O); assay type: in vivo, lambsquarters (Chenopodium album); settings: foliage application, AAH 320 g/ha, evaluated three weeks after application
Summary of the method: as §4

chickweed [24] = assay: Test Example 5: herbicidal effect by foliage application, plastic box (Table 20, symbol P); assay type: in vivo, common chickweed (Stellaria media); settings: foliage application, AAH 320 g/ha, evaluated three weeks after application
Summary of the method: as §4

persian speedwell [25] = assay: Test Example 5: herbicidal effect by foliage application, plastic box (Table 20, symbol R); assay type: in vivo, Persian speedwell (Veronica persica); settings: foliage application, AAH 320 g/ha, evaluated three weeks after application
Summary of the method: as §4

## CSCCSCc1ccc(-c2sc3ccc(F)cc3c2-c2c(O)c(C)nn(C)c2=O)cc1 [2-329]
Late watergrass
  Herbicidal effect on A: late watergrass (grade 0-5): 2 (Herbicidal rate of 20% or more and less than 40%)
Japanese bulrush
  Herbicidal effect on B: Japanese bulrush (grade 0-5): 0 (Herbicidal rate of 5% or less (almost no effect))
oval-leafed pondweed
  Herbicidal effect on C: oval-leafed pondweed (grade 0-5): 0 (Herbicidal rate of 5% or less (almost no effect))
Barnyard grass [1]
  herbicidal effect on H: barnyard grass: 5 (Herbicidal rate of 90% or more (almost completely withered))
Chinese sprangletop
  herbicidal effect on D: Chinese sprangletop: 4 (Herbicidal rate of 70% or more and less than 90%)
Rice flat sedge
  herbicidal effect on E: rice flat sedge: 4 (Herbicidal rate of 70% or more and less than 90%)
Southern crabgrass [2]
  herbicidal effect on F: southern crabgrass: 0 (Herbicidal rate of 5% or less (almost no effect))
Green foxtail [3]
  herbicidal effect on G: green foxtail: 0 (Herbicidal rate of 5% or less (almost no effect))
Barnyard grass [4]
  herbicidal effect on H: barnyard grass: 0 (Herbicidal rate of 5% or less (almost no effect))
Wild oat [5]
  herbicidal effect on I: wild oat: 0 (Herbicidal rate of 5% or less (almost no effect))
Blackgrass [6]
  herbicidal effect on J: blackgrass: 0 (Herbicidal rate of 5% or less (almost no effect))
Italian ryegrass [7]
  herbicidal effect on K: Italian ryegrass: 0 (Herbicidal rate of 5% or less (almost no effect))
Windgrass [8]
  herbicidal effect on L: windgrass: 0 (Herbicidal rate of 5% or less (almost no effect))
Velvetleaf [9]
  herbicidal effect on M: velvetleaf: 0 (Herbicidal rate of 5% or less (almost no effect))
Redroot pigweed [10]
  herbicidal effect on N: redroot pigweed: 3 (Herbicidal rate of 40% or more and less than 70%)
Lambsquarters [11]
  herbicidal effect on O: lambsquarters: 0 (Herbicidal rate of 5% or less (almost no effect))
Chickweed [12]
  herbicidal effect on P: chickweed: 0 (Herbicidal rate of 5% or less (almost no effect))
False cleavers
  herbicidal effect on Q: false cleavers: 0 (Herbicidal rate of 5% or less (almost no effect))
Persian speedwell [13]
  herbicidal effect on R: persian speedwell: 0 (Herbicidal rate of 5% or less (almost no effect))
Southern crabgrass [14]
  F: southern crabgrass, herbicidal effect (criteria 0-5): 5 (Herbicidal rate of 90% or more (almost completely withered))
Green foxtail [15]
  G: green foxtail, herbicidal effect (criteria 0-5): 5 (Herbicidal rate of 90% or more (almost completely withered))
Barnyard grass [16]
  H: barnyard grass, herbicidal effect (criteria 0-5): 4 (Herbicidal rate of 70% or more and less than 90%)
Wild oat [17]
  I: wild oat, herbicidal effect (criteria 0-5): 3 (Herbicidal rate of 40% or more and less than 70%)
Blackgrass [18]
  J: blackgrass, herbicidal effect (criteria 0-5): 4 (Herbicidal rate of 70% or more and less than 90%)
Italian ryegrass [19]
  K: Italian ryegrass, herbicidal effect (criteria 0-5): 4 (Herbicidal rate of 70% or more and less than 90%)
Windgrass [20]
  L: windgrass, herbicidal effect (criteria 0-5): 5 (Herbicidal rate of 90% or more (almost completely withered))
Velvetleaf [21]
  M: velvetleaf, herbicidal effect (criteria 0-5): 5 (Herbicidal rate of 90% or more (almost completely withered))
Redroot pigweed [22]
  N: redroot pigweed, herbicidal effect (criteria 0-5): 5 (Herbicidal rate of 90% or more (almost completely withered))
Lambsquarters [23]
  O: lambsquarters, herbicidal effect (criteria 0-5): 4 (Herbicidal rate of 70% or more and less than 90%)
Chickweed [24]
  P: chickweed, herbicidal effect (criteria 0-5): 5 (Herbicidal rate of 90% or more (almost completely withered))
Persian speedwell [25]
  R: persian speedwell, herbicidal effect (criteria 0-5): 5 (Herbicidal rate of 90% or more (almost completely withered))
